Reference: patent publication US8232407B2, “Nitrogenous heterocyclic compounds with insecticidal activity, and the preparation and use thereof” (East China University of Science and Technology, priority 2008, dated 2012)

Assays:
Assay type in all cases: in vivo
Aphis craccivoral = experiment: Insecticidal activities to aphids, immersion method; details: for Aphis craccivoral Mortality (%) 500 ppm: in vivo
Description: (1): Insecticidal Activities to Aphids
Aphis (Aphis craccivoral), which belongs to Homoptera and has a piercing-sucking mouthpart, is a common insect for agricultural plant. Aphis craccivoral was tested by immersion method.
Procedure: exactly weighed various samples were independently added to N,N-dimethylformamide to form 10 g/L stock solutions. The stock solutions were diluted with 0.2 mL/L aqueous Triton X-100 solution to a concentration of 500 ppm. After stably sucking on bean sprout, the wingless adult aphis together with bean sprout were dipped into 500 ppm dilution, taken out after 5 seconds, and the excess dilution was sucked off with bibulous paper. The treated wingless adult aphis was incubated in clean vessel at a constant temperature of 23° C. Each concentration was repeated for 3 times and the control group was treated with 0.2mL/L aqueous Triton X-100 solution. The number of killed aphis was counted after 24 hours and the mortality was to calculated according to the following formula:
(§1) Mortality (%)=(the number of the survival aphis in control group−the number of the survival aphis in the treatment group)/the number of the survival aphis in control group×100%

Nilaparvata lugens = experiment: Insecticidal activities to plant hopper, spraying method; details: for Nilaparvata lugens Mortality (%) 500 ppm: in vivo
Description: as §1
(2): Insecticidal Activities to Plant hopper
Plant hopper (Nilaparvata lugens), which belongs to Homoptera and has a piercing-sucking mouthpart, is a common insect for agricultural plant. Nilaparvata lugens was tested by spraying method.
Procedure: the test compound was exactly formulated with acetone to form solutions having concentrations of 500, 250, 100, 50, 25, 12.5, 6.25, 3.13, 1.57 and 0.79 ppm, respectively. Aqueous acetone solution was used as control. Each treatment was repeated for 3 tumblers (3 times). Two ml of solution was sprayed uniformly to each tumbler with a mini manual sprayer. 10 insects were introduced to every basin 6 hours before spraying. Three series of experiments were conducted. The number of killed insects was counted after 24 hours to calculate the mortality according to the above mentioned formula.

[1] = system: Pseudaletia separate Walker; experiment: Insecticidal activities to armyworm, leaf dipping and feeding
Description: as §1
(3): Insecticidal Activities to Armyworm
Armyworm (Pseudaletia separate Walker) was tested by the way of leaf dipping and feeding. The test compound was exactly formulated with acetone into solutions having concentrations of 500, 250, 100, 50, 25, 12.5, 6.25, 3.13 and 1.57 ppm, respectively. Aqueous acetone solution was used as control. Fresh maize leaves were immersed in the solution for 3 seconds, dried at room temperature, and fed to the tested insects. Each treatment was tested with 10 insects and repeated for 3 tumblers (3 times). The number of killed insects was counted after 24 hours to calculate the mortality according to the above mentioned formula.

Plutella xylostella = experiment: Insecticidal activities to diamondback moth, feeding dipped leaves; details: for Plutella xylostella Mortality (%) 500 ppm: in vivo
Description: as §1
(4): Insecticidal Activities to Diamondback Moth
Diamondback moth (Plutella xylostella) was tested by the way of feeding dippedleaves. Fresh cabbage leaves were immersed in above mentioned solution for 3 seconds, dried at room temperature, and fed to the tested insects. Each treatment was tested with 10 insects and repeated for 3 tumblers (3 times), while water was used as control. The number of killed insects was counted after 24 hours to calculate the mortality according to the above mentioned formula.

Row | Compound | mortality at 500 ppm (Aphis craccivoral; Aphis, 500 ppm, immersion method, read-out: Aphis craccivoral Mortality (%) 500 ppm) [%] | mortality at 500 ppm (Nilaparvata lugens; Nilaparvata lugens, 500 ppm, spraying method, counted after 24 hours, read-out: Nilaparvata lugens Mortality (%) 500 ppm) [%] | Pseudaletia separate Walker Mortality (%) 500 ppm ([1]; 500 ppm, leaf dipping and feeding, counted after 24 hours) [%] | mortality at 500 ppm (Plutella xylostella; Plutella xylostella, 500 ppm, feeding dipped leaves, counted after 24 hours, read-out: Plutella xylostella Mortality (%) 500 ppm) [%] | Aphis craccivoral Mortality (%) 500 ppm (Aphis craccivoral) [%] | Nilaparvata lugens Mortality (%) 500 ppm (Nilaparvata lugens) [%] | Pseudaletia separate Walker Mortality (%) 500 ppm ([1]; in vivo) [%] | Plutella xylostella Mortality (%) 500 ppm (Plutella xylostella) [%]
1 | O=[N+]([O-])/C(=C/c1ccco1)C1=NCCCN1Cc1ccc(Cl)nc1 [Compound 46, 1-((6-chloropyridin-3-yl)methyl)-2-(2-(furan-2-yl)-1-nitrovinyl)-1,4,5,6-tetrahydropyrimidine] | 100 | 100 | 100 | 100 | – | – | – | –
2 | CCc1ccc(C=C(C2=[N+](C)CCN2Cc2ccc(Cl)nc2)[N+](=O)[O-])o1.[Cl-] [Compound 257] | – | – | – | – | 100 | 100 | 100 | 100
3 | O=[N+]([O-])C(=Cc1oc(Cl)cc1Cl)C1=NCCN1Cc1cnc(Cl)s1 [Compound 76] | – | – | – | – | 100 | 100 | 100 | 100
4 | O=[N+]([O-])C(=Cc1ccoc1)C1=NCCCN1Cc1ccc(Cl)nc1 [Compound 47] | – | – | – | – | 100 | 100 | 100 | 100
5 | O=[N+]([O-])C(=Cc1oc(Cl)cc1Cl)C1=NCCN1Cc1ccc(Cl)nc1 [Compound 9] | – | – | – | – | 100 | 100 | 100 | 100
6 | CC(=C(C1=NCCN1Cc1ccc(Cl)nc1)[N+](=O)[O-])c1ccoc1 [Compound 112] | – | – | – | – | 56 | 76 | 68 | 53
7 | CCc1ccc(C=C(C2=NCCCN2Cc2ccc(Cl)nc2)[N+](=O)[O-])o1 [Compound 59] | – | – | – | – | 57 | 84 | 86 | 100
8 | CC[N+]1=C(C(=Cc2cccs2)[N+](=O)[O-])N(Cc2ccc(Cl)nc2)CC1.[Cl-] [Compound 291] | – | – | – | – | 100 | 100 | 100 | 100
9 | O=[N+]([O-])C(=Cc1cc(Cl)c(Cl)o1)C1=NCCN1Cc1ccccc1 [Compound 108] | – | – | – | – | 87 | 95 | 24 | 24
10 | N#CC(=Cc1cc(Br)c(Br)o1)C1=NCCN1Cc1ccc(Cl)nc1 [Compound 144] | – | – | – | – | 87 | 100 | 90 | 100
11 | O=[N+]([O-])C(=Cc1cccs1)C1=NCCN1Cc1cnc(Cl)s1 [Compound 83] | – | – | – | – | 100 | 100 | 100 | 100
12 | CCc1ccc(C(C)=C(C2=NCCN2Cc2ccc(Cl)nc2)[N+](=O)[O-])o1 [Compound 115] | – | – | – | – | 93 | 100 | 79 | 96
13 | O=[N+]([O-])C(=Cc1ccc(Br)s1)C1=NCCCN1Cc1ccc(Cl)nc1 [Compound 65] | – | – | – | – | 73 | 100 | 92 | 100
14 | O=[N+]([O-])C(=Cc1ccc(CO)o1)C1=NCCN1CC1CCOC1 (centres unmarked) [Compound 102] | – | – | – | – | 75 | 89 | 89 | 97
15 | N#CC(=Cc1ccsc1)C1=NCCN1Cc1ccc(Cl)nc1 [Compound 147] | – | – | – | – | 100 | 100 | 100 | 100
16 | O=[N+]([O-])C(=Cc1cc(Br)c(Br)o1)C1=NCCCN1Cc1ccc(Cl)nc1 [Compound 55] | – | – | – | – | 98 | 100 | 100 | 100
17 | C[N+]1=C(C(=Cc2ccc([N+](=O)[O-])o2)[N+](=O)[O-])N(Cc2cnc(Cl)s2)CC1.[Cl-] [Compound 277] | – | – | – | – | 100 | 100 | 100 | 100
18 | CC(=C(C1=NCCN1C(C)c1ccc(Cl)nc1)[N+](=O)[O-])c1ccsc1 (racemic) [Compound 139] | – | – | – | – | 93 | 100 | 95 | 100
19 | O=[N+]([O-])C(=Cc1cc(Cl)co1)C1=NCCN1Cc1ccc(Cl)nc1 [Compound 6] | – | – | – | – | 100 | 100 | 100 | 100
20 | O=[N+]([O-])C(=Cc1ccc(CO)s1)C1=NCCN1Cc1ccc(Cl)nc1 [Compound 30] | – | – | – | – | 100 | 100 | 100 | 100
21 | O=[N+]([O-])C(=Cc1cc(Cl)c(Cl)o1)C1=NCCN1CC1CCOC1 (centres unmarked) [Compound 98] | – | – | – | – | 76 | 90 | 68 | 77
22 | CC(=C(C1=NCCN1C(C)c1ccc(Cl)nc1)[N+](=O)[O-])c1ccc(Br)o1 (racemic) [Compound 137] | – | – | – | – | 98 | 100 | 100 | 100
23 | O=[N+]([O-])C(=Cc1ccc(CO)o1)C1=NCCN1Cc1ccc(Cl)nc1 [Compound 15] | – | – | – | – | 100 | 100 | 100 | 100
24 | C[N+]1=C(C(=Cc2ccc([N+](=O)[O-])o2)[N+](=O)[O-])N(Cc2ccc(Cl)nc2)CC1.[Cl-] [Compound 246] | – | – | – | – | 100 | 100 | 100 | 100
25 | O=[N+]([O-])C(=Cc1cc(Cl)c(Cl)o1)C1=NCCCN1Cc1ccc(Cl)nc1 [Compound 53] | – | – | – | – | 100 | 100 | 100 | 100
26 | O=[N+]([O-])C(=Cc1ccc(Br)s1)C1=NCCN1Cc1cnc(Cl)s1 [Compound 87] | – | – | – | – | 100 | 100 | 100 | 100
27 | CC(=C(C1=NCCN1Cc1ccc(Cl)nc1)[N+](=O)[O-])c1ccc(Cl)s1 [Compound 118] | – | – | – | – | 93 | 90 | 19 | 23
28 | O=[N+]([O-])C(=Cc1ccc([N+](=O)[O-])s1)C1=NCCN1Cc1ccc(Cl)nc1 [Compound 18] | – | – | – | – | 100 | 100 | 100 | 100
29 | N#CC(=Cc1ccco1)C1=NCCN1Cc1ccc(Cl)nc1 [Compound 140] | – | – | – | – | 100 | 100 | 100 | 100
